This passage reports inhibition results from patent US6635639B2, “Use of N-alkylamino-heterocylic compounds for the treatment of migraine” (NPS Allelix Corp., priority 1998, dated 2003).

For one experiment, the target named is T1, 5-HT1D receptor (Homo sapiens, UniProt P28221).
T1 construct: expressed in transfected cells
Kind of experiment: Binding affinity, 3H-serotonin displacement from membranes of cells expressing 5-HT1D. The following applies: binding of radioligand inhibited in the presence of 100 nM of test compound; 3H-serotonin 1 nM; read-out: percent inhibition at the 5-HT1D receptor. The procedure:
(§1) Selected compounds of the previous examples, as well as reference compounds, were evaluated for binding affinity using cell types receptive specifically to 5-HT1D and 5-HT1B ligands. The assay protocol generally entailed the incubation of membranes prepared from cells expressing the 5-HT1D or 5-HT1B subtype of 5-HT receptors with ^3H-serotonin (1 nM for 5-HT1D and 2.5 nM for 5-HT1B). Specific concentrations of the test compound were incubated with the radioligand and the membrane homogenates prepared from the recombinant cells. After a 60 minute incubation at 22° C., the incubation was terminated by vacuum filtration. The filters were washed with buffer and counted for radioactivity using liquid scintillation spectroscopy. The affinity of the test compound for the 5-HT1D receptor is expressed as the amount (in percent) of binding of the radioligand that is inhibited in the presence of 100 nM of test compound. A greater percent inhibition indicates greater affinity for the 5-HT1D receptor.

The target in a further experiment is T2, 5-HT1B receptor (Homo sapiens, UniProt P28222).
T2 construct: expressed in transfected cells
T2 sequence (P28222 whole entry): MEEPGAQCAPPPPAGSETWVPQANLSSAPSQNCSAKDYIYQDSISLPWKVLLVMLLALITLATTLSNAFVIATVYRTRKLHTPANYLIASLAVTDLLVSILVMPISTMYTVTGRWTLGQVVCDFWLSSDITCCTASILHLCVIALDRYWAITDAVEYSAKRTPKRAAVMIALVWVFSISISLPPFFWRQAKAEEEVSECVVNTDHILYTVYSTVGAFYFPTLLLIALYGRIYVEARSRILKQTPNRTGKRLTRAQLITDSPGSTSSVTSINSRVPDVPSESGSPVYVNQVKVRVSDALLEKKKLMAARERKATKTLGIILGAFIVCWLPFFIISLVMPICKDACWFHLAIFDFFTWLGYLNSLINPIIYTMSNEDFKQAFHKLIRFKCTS
Kind of experiment: Binding affinity, 3H-serotonin displacement from membranes of cells expressing 5-HT1B. To be noted: 1 h; 3H-serotonin 2.5 nM; selectivity comparison; read-out: percent inhibition at the 5-HT1B receptor. The procedure: as §1

T1 sequence (P28221 whole entry): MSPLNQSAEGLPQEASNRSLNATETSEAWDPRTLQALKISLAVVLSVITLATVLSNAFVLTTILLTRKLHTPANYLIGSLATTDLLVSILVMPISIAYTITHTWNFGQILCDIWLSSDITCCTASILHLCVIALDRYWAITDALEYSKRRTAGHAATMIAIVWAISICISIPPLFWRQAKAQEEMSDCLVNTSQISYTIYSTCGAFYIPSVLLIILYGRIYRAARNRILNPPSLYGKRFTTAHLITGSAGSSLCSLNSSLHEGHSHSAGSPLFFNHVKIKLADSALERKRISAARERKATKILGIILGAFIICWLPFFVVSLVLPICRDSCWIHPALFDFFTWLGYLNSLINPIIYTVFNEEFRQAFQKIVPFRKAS

For the molecule `CN(C)CCn1ccc2ccc(-c3cccs3)cc21` [Example 10t, 1-(2-(N,N-dimethylamino)ethyl)-6-(2-thienyl)-1H-indole], the inhibition (usually the relative decrease from the control value, in per cent) at 0.1 µM at 5-HT1D receptor is above 75%.
As for `CN(C)CCn1ccc2ccc(C3(O)CCOCC3)cc21` [Example 6, 6-(4-hydroxy-tetrahydropyran-4-yl)-1-(2-(N,N-dimethylamino)ethyl)-1H-indole], the inhibition at 0.1 µM on 5-HT1D receptor was above 90%.
As for `CCN(CC)CCn1ccc2ccc(C3CCSCC3)cc21` [Example 5e, 1-(2-(N,N-diethylamino)ethyl)-6-(tetrahydrothiopyran-4-yl)-1H-indole], the inhibition at 0.1 µM on 5-HT1D receptor was above 75%; at 5-HT1B receptor, below 15%.
Take `CCN(CC)CCn1ccc2ccc(-c3cccnc3)cc21` [Example 10dd, 1-(2-(N,N-diethylamino)ethyl)-6-(3-pyridinyl)-1H-indole]: the inhibition at 0.1 µM at 5-HT1D receptor is above 75%.
With `CN(C)CCn1ccc2ccc(-c3ccccn3)cc21` [Example 12b, 1-(2-(N,N-dimethylamino)ethyl)-6-(pyridin-2-yl)-1H-indole], the inhibition at 0.1 µM on 5-HT1D receptor is above 50%.
On the same count and under the same terms, as for `CCN(CC)CCn1ncc2ccc(C3CCSCC3)cc21` [Example 16d, 1-(2-(N,N-diethylamino)ethyl)-6-(tetrahydrothiopyran-4-yl)-1H-indazole], the figure is above 75%.
As to `CCN(CC)CCn1ncc2ccc(-c3ccoc3)cc21` [Example 10i, 1-(2-(N,N-diethylamino)ethyl)-6-(furan-3-yl)-1H-indazole], the results for the inhibition at 0.1 µM at 5-HT1D receptor and on 5-HT1B receptor were above 75% and below 15%, respectively.
In the case of `CCN(CC)CCn1ncc2ccc(C3CCOCC3)cc21` [Example 16, 1-(2-(N,N-diethylamino)ethyl)-6-(tetrahydropyran-4-yl)-1H-indazole], the inhibition at 0.1 µM at 5-HT1D receptor is above 75%; at 5-HT1B receptor it was below 15%.
Consider `CN(C)CCn1ccc2ccc(C3(O)CCSCC3)cc21` [Example 3, 1-(2-(N,N-Dimethylamino)ethyl)-6-(4-hydroxy-tetrahydro-thiopyran-4-yl)-1H-indole], for which the figures for the inhibition at 0.1 µM on 5-HT1D receptor and on 5-HT1B receptor were above 75% and below 15%, respectively.
For `CN(C)CCn1ccc2ccc(-c3cccnc3)cc21` [Example 10w, 1-(2-(N,N-dimethylamino)ethyl)-6-(3-pyridinyl)-1H-indole], at 5-HT1D receptor, the inhibition at 0.1 µM was above 90%.
For the molecule `c1cc(-c2ccc3cnn(CCNC4CC4)c3c2)cs1` [Example 9p, 1-(2-(N-cyclopropylamino)ethyl)-6-(3-thienyl)-1H-indazole], on 5-HT1D receptor, the inhibition at 0.1 µM was above 75%.
On the same count and under the same terms, as for `CCN(CC)CCn1ncc2ccc(-c3cc4ccccc4o3)cc21` [Example 10o, 1-(2-(N,N-diethylamino)ethyl)-6-(benzofuran-2-yl)-1H-indazole], the figure is above 50%.
Consider `CN(C)CCn1ncc2ccc(-c3ccsc3)cc21` [Example 10b, 1-(2-(N,N-dimethylamino)ethyl)-6-(3-thienyl)-1H-indazole], for which the inhibition at 0.1 µM at 5-HT1D receptor was above 90%.
As for `c1cc(-c2ccc3cnn(CCN4CCCC4)c3c2)cs1` [Example 9i, 1-(2-(N-pyrrolidinyl)ethyl)-6-(3-thienyl)-1H-indazole], the values for the inhibition at 0.1 µM on 5-HT1D receptor and on 5-HT1B receptor were above 75% and below 15%, respectively.
In the case of `CCN(CC)CCn1ncc2ccc(-c3cccnc3)cc21` [Example 10h, 1-(2-(N,N-diethylamino)ethyl)-6-(3-pyridinyl)-1H-indazole], the inhibition at 0.1 µM on 5-HT1D receptor is above 75%; at 5-HT1B receptor it was below 15%.
In the case of `CN(C)CCn1ncc2ccc(-c3cccs3)cc21` [Example 10, 1-(2-(N,N-dimethylamino)ethyl)-6-(2-thienyl)-1H-indazole], the inhibition at 0.1 µM on 5-HT1D receptor was above 75%; at 5-HT1B receptor, below 50%.
With `CN(C)CCn1ncc2ccc(-c3ccncc3)cc21` [Example 12, 1-(2-(N,N-dimethylamino)ethyl)-6(4-pyridinyl)-1H-indazole], the inhibition at 0.1 µM on 5-HT1D receptor is above 75%.
Take `CCN(CC)CCn1ncc2ccc(-c3ccsc3)cc21` [Example 9b, 1-(2-(N,N-diethylamino)ethyl)-6-(3-thienyl)-1H-indazole]: the inhibition at 0.1 µM at 5-HT1D receptor was above 75%; at 5-HT1B receptor, below 15%.
